Our source for the IC50 values is patent US20220363668A1, “ENZYME INHIBITORS” (KALVISTA PHARMACEUTICALS LIMITED, priority 2019, published 2022).

Assay [1] has as its target T1, Human Factor XIIa (Homo sapiens, UniProt P00748).
T1 construct: purchased Enzyme Research Laboratories
T1 sequence (P00748 373-615 limits assumed): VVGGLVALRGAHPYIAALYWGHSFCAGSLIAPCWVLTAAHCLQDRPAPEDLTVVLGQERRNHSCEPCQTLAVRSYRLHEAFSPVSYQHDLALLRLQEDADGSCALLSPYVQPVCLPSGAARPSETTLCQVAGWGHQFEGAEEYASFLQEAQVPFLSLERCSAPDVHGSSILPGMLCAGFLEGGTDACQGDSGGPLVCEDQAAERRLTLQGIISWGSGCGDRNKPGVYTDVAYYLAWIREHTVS
The assay can be described thus: Determination of the % Inhibition for FXIIa (IC50, fluorogenic substrate H-DPro-Phe-Arg-AFC). As to conditions: Human Factor XIIa (Enzyme Research Laboratories), 25° C. It is filed as biochemical. Here is the method:
Determination of the % Inhibition for FXIIa
Factor XIIa inhibitory activity in vitro was determined using standard published methods (see e.g. Shori et al., Biochem. Pharmacol., 1992,43, 1209; Baeriswyl et al., ACS Chem. Biol., 2015, 10 (8) 1861; Bouckaert et al., European Journal of Medicinal Chemistry 110 (2016) 181). Human Factor XIIa (Enzyme Research Laboratories) was incubated at 25° C. with the fluorogenic substrate H-DPro-Phe-Arg-AFC and various concentrations of the test compound. Residual enzyme activity (initial rate of reaction) was determined by measuring the change in […] at 410 nm and the IC50 value for the test compound was determined.

For assay [2], the target named is T2, Human FXIa (Homo sapiens, UniProt P03951).
T2 construct: purchased Enzyme Research Laboratories
T2 sequence (P03951 388-625 limits assumed): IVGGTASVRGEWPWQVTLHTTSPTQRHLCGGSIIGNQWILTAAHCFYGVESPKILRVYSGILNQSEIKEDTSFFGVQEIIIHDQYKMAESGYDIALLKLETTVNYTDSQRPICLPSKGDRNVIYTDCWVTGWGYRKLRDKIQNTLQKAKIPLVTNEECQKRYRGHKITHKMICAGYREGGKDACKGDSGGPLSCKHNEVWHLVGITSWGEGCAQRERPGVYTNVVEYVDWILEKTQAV
T2 sequence (P03951 19-387 partner limits assumed): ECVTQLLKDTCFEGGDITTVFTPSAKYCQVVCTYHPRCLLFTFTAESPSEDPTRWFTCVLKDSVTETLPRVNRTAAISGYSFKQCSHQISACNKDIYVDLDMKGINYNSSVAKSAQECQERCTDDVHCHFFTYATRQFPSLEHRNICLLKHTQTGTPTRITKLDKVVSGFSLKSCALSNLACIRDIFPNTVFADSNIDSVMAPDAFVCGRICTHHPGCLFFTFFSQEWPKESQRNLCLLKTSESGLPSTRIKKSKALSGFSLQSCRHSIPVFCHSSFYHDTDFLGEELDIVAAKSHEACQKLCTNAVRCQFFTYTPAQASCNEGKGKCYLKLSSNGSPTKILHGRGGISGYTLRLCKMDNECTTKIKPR
The assay can be described thus: Determination of the % Inhibition for FXIa (IC50, fluorogenic substrate Z-Gly-Pro-Arg-AFC). The following applies: Selectivity, Human FXIa (Enzyme Research Laboratories), 25° C. The format is biochemical. Here is the method: Determination of the % Inhibition for FXIa
FXIa inhibitory activity in vitro was determined using standard published methods (see e.g. Johansen et al., Int. J. Tiss. Reac. 1986, 8, 185; Shori et al., Biochem. Pharmacol., 1992, 43, 1209; Stürzebecher et al., Biol. Chem. Hoppe-Seyler, 1992, 373, 1025). Human FXIa (Enzyme Research Laboratories) was incubated at 25° C. with the fluorogenic substrate Z-Gly-Pro-Arg-AFC and various concentrations of the test compound. Residual enzyme activity (initial rate of reaction) was determined by measuring the change in fluorescence at 410 nm and the IC50 value for the test compound was determined.

As to `CN1CCC(CNC(=O)c2cccc(NCc3ccc4c(N)nccc4c3)n2)CC1` [Example 18.201, 6-(((1-Aminoisoquinolin-6-yl)methyl)amino)-N-((1-methylpiperidin-4-yl)methyl)picolinamide], in assay [1], the concentration for half-maximal inhibition (IC50) lay within 3 to 10 µM.
In assay [1], `Nc1nccc2cc(CNc3ccc(OC4CCNCC4)cc3)ccc12` [Example 18.07] yielded a half-inhibitory concentration (IC50) of 1 to 3 µM.
Turning to `CN1CCC(OCc2ccc(NCc3ccc4c(N)nccc4c3)nc2)CC1` [Example 18.03, 6-(((5-(((1-Methylpiperidin-4-yl)oxy)methyl)pyridin-2-yl)amino)methyl)isoquinolin-1-amine], the IC50 in assay [1] was below 1 µM; in assay [2] it was above 40 µM.
`CN1CCC(NC(=O)c2ccnc(NCc3ccc4c(N)nccc4c3)c2)CC1` [Example 18.204, 2-(((1-Aminoisoquinolin-6-yl)methyl)amino)-N-(1-methylpiperidin-4-yl)isonicotinamide] showed an IC50 in assay [1] of 3 to 10 µM.
Same read-out and setting: then `CN1CCC(Oc2cncc(NCc3ccc4c(N)nccc4c3)n2)CC1` [Example 18.207, 6-(((6-((1-Methylpiperidin-4-yl)oxy)pyrazin-2-yl)amino)methyl)isoquinolin-1-amine], with 10 to 40 µM; and `CN1CCC(COc2ccc(NCc3ccc4c(N)nccc4c3)cc2CCO)CC1` [Example 18.17], with below 1 µM.
In the case of `CN1CCC(COc2ccc(NCc3ccc4c(N)nccc4c3)cn2)CC1` [Example 18.11, 6-(((6-((1-Methylpiperidin-4-yl)methoxy)pyridin-3-yl)amino)methyl)isoquinolin-1-amine], the 50% inhibitory concentration (IC50) in assay [1] is below 1 µM; in assay [2], 17.9 µM.
`CN1CCC(COc2ccc(NCc3ccc4c(N)nccc4c3)nc2)CC1` [Example 18.04, 6-(((5-((1-Methylpiperidin-4-yl)methoxy)pyridin-2-yl)amino)methyl)isoquinolin-1-amine]: the results for the 50% inhibitory concentration (IC50) in assay [1] and in assay [2] were below 1 µM and above 40 µM, respectively.
As to `Nc1nccc2cc(CNc3cc(OCCN4CCOCC4)ccn3)ccc12` [Example 18.208], the IC50 in assay [1] was in the range of 10 to 40 µM.
Take `Nc1nccc2cc(CNc3ccc(OCCN4CCOCC4)cn3)ccc12` [Example 18.09, 6-(((5-(2-Morpholinoethoxy)pyridin-2-yl)amino)methyl)isoquinolin-1-amine]: in assay [1], the half-maximal inhibitory concentration (IC50) lay within 10 to 40 µM.
In assay [1], `CN1CCC(Oc2cncc(NCc3ccc4c(N)nccc4c3)c2)CC1` [Example 18.212] registered a concentration for half-maximal inhibition (IC50) of 1 to 3 µM.
`CN1CCC(COc2cnc(NCc3ccc4c(N)nccc4c3)cn2)CC1` [Example 18.10, 6-(((5-((1-Methylpiperidin-4-yl)methoxy)pyrazin-2-yl)amino)methyl)isoquinolin-1-amine]: the IC50 in assay [1] is below 1 µM; in assay [2], 24.8 µM.
In the case of `CN1CCC(Oc2cccc(NCc3ccc4c(N)nccc4c3)c2)CC1` [Example 18.211], in assay [1], the half-maximal inhibitory concentration (IC50) was 1 to 3 µM.
On to `CN1CCC(Oc2ccnc(NCc3ccc4c(N)nccc4c3)c2)CC1` [Example 18.202, 6-(((4-((1-methylpiperidin-4-yl)oxy)pyridin-2-yl)amino)methyl)isoquinolin-1-amine], for which the IC50 in assay [1] was below 1 µM; in assay [2], above 40 µM.
`CN1CCCC(COc2ccc(NCc3ccc4c(N)nccc4c3)nc2)C1` (stereo not shown) [Example 18.14] yielded an IC50 in assay [1] of 1 to 3 µM.
As for `Nc1nccc2cc(CNc3ccc(COC4CCNCC4)cn3)ccc12` [Example 18.19, 6-(((5-((Piperidin-4-yloxy)methyl)pyridin-2-yl)amino)methyl)isoquinolin-1-amine], the half-maximal inhibitory concentration (IC50) in assay [1] is 3 to 10 µM.
As for `CN1CCC(Oc2ccc(NCc3ccc4c(N)nccc4c3)cc2)CC1` [Example 18.08, 6-(((4-((1-Methylpiperidin-4-yl)oxy)phenyl)amino)methyl)isoquinolin-1-amine], the IC50 in assay [1] is below 1 µM; in assay [2], above 40 µM.
In assay [1], `CN1CCC(Oc2cnc(NCc3ccc4c(N)nccc4c3)nc2)CC1` [Example 18.02, 6-[({5-[(1-Methylpiperidin-4-yl)oxy]pyrimidin-2-yl}amino)methyl]isoquinolin-1-amine] displayed an IC50 of 10 to 40 µM.
On to `CN1CCC(NC(=O)c2ccc(NCc3ccc4c(N)nccc4c3)nc2)CC1` [Example 18.16], for which, in assay [1], the IC50 lay in the range of 10 to 40 µM.
Take `CN1CCC(Oc2ccc(NCc3ccc4c(N)nccc4c3)nc2)CC1` [Example 18.01, 6-(((5-((1-Methylpiperidin-4-yl)oxy)pyridin-2-yl)amino)methyl)isoquinolin-1-amine]: the results for the concentration for half-maximal inhibition (IC50) in assay [1] and in assay [2] were 1 to 3 µM and 36.4 µM, respectively.
Take `CN1CCC(COc2ccc(NCc3ccc4c(N)nccc4c3)cn2)CC1` [Example 18.12]: half-maximal inhibition in assay [2] (IC50) required 33.1 µM.
For `CN1CCC(CNC(=O)c2ccc(NCc3ccc4c(N)nccc4c3)nc2)CC1` [Example 18.13], the IC50 in assay [1] fell in the range of 3 to 10 µM.
In the case of `CN1CCC(Oc2cccc(NCc3ccc4c(N)nccc4c3)n2)CC1` [Example 18.203], the concentration for half-maximal inhibition (IC50) in assay [1] was 10 to 40 µM.
In the case of `CN1CCC(Oc2cnc(NCc3ccc4c(N)nccc4c3)cn2)CC1` [Example 18.05], the IC50 in assay [1] is below 1 µM; in assay [2] it was 19.9 µM.
With `CN1CCC(Oc2cc(NCc3ccc4c(N)nccc4c3)ncn2)CC1` [Example 18.209], the IC50 in assay [1] is 1 to 3 µM.
Take `CN1CCCC(Oc2ccnc(NCc3ccc4c(N)nccc4c3)c2)C1` (stereo not shown) [Example 18.210]: the IC50 in assay [1] was 1 to 3 µM.
Same read-out and setting: the result for `Nc1nccc2cc(CNc3cc(OC4CCNCC4)ccn3)ccc12` [Example 18.213, 6-(((4-(Piperidin-4-yloxy)pyridin-2-yl)amino)methyl)isoquinolin-1-amine] reads 3 to 10 µM; that for `CN1CCC(OCc2ccnc(NCc3ccc4c(N)nccc4c3)c2)CC1` [Example 18.206, 6-(((4-(((1-Methylpiperidin-4-yl)oxy)methyl)pyridin-2-yl)amino)methyl)isoquinolin-1-amine], 1 to 3 µM.
On the same count and under the same terms, the result for `CN1CCC(Oc2ccc(NCc3ccc4c(N)nccc4c3)nn2)CC1` [Example 18.06] reads 1 to 3 µM; that for `CN1CCC(COc2ccc(NCc3ccc4c(N)nccc4c3)cc2CO)CC1` [Example 18.15, (5-(((1-Aminoisoquinolin-6-yl)methyl)amino)-2-((1-methylpiperidin-4-yl)methoxy)phenyl)methanol], below 1 µM.
On the same count and under the same terms, then `CN1CCC(COc2ccc(NCc3ccc4c(N)nccc4c3)cc2)CC1` [Example 18.18, 6-(((4-((1-Methylpiperidin-4-yl)methoxy)phenyl)amino)methyl)isoquinolin-1-amine], with below 1 µM; and `CN1CCN(C(=O)c2ccnc(NCc3ccc4c(N)nccc4c3)c2)CC1` [Example 18.205], with 10 to 40 µM.
